Laboratory results taken from patent US20240108601A1, “TREATMENT OF MENTAL DISORDERS” (GH Research Ireland Limited, priority 2022, published 2024).
Values joined by “and” are separate entries in the source; they are usually repeats but may differ in a detail not shown here. Equal values may be shown once.

Test system: patients with treatment-resistant major depressive disorder (TRD)
Assay: Phase 1/2 clinical trial of inhaled 5-MeO-DMT in treatment-resistant depression
Settings: for MADRS Concentration Difficulties % improvement / MADRS Concentration Difficulties improvement / MADRS Inability to Feel % improvement / MADRS Inability to Feel improvement / MADRS Inner Tension % improvement / MADRS Inner Tension improvement / MADRS Lassitude % improvement / MADRS Lassitude improvement / MADRS Pessimistic Thoughts % improvement / MADRS Pessimistic Thoughts improvement / MADRS Suicidal Thoughts % improvement / MADRS Suicidal Thoughts improvement / MADRS Suicidal Thoughts aggregated score / MADRS Inner Tension aggregated score / MADRS Concentration Difficulties aggregated score / MADRS Inability to Feel aggregated score / MADRS Lassitude aggregated score / MADRS Pessimistic Thoughts aggregated score / BPRS Anxiety % improvement / BPRS Anxiety improvement / BPRS Blunted Affect % improvement / BPRS Blunted Affect improvement / BPRS Emotional Withdrawal % improvement / BPRS Emotional Withdrawal improvement / BPRS Guilt Feelings % improvement / BPRS Guilt Feelings improvement / BPRS Tension % improvement / BPRS Tension improvement / BPRS Blunted Affect aggregated score / BPRS Emotional Withdrawal aggregated score / BPRS Tension aggregated score / BPRS Guilt Feelings aggregated score / BPRS Anxiety aggregated score / MADRS Reduced Sleep % improvement / MADRS Reduced Sleep improvement / MADRS Reduced Sleep aggregated score: 12 mg n=4; for MADRS Suicidal Thoughts aggregated score: baseline 8; for MADRS Inner Tension aggregated score / BPRS Emotional Withdrawal aggregated score: baseline 13; for MADRS Concentration Difficulties aggregated score / MADRS Inability to Feel aggregated score / MADRS Lassitude aggregated score / MADRS Pessimistic Thoughts aggregated score: baseline 16; for BPRS Blunted Affect aggregated score: baseline 11; for BPRS Tension aggregated score: baseline 14; for BPRS Guilt Feelings aggregated score: baseline 18; for BPRS Anxiety aggregated score: baseline 25; for MADRS Reduced Sleep aggregated score: baseline 12
Method: Patients were assigned to different groups. In the context of the present invention, the group who received a single, 12 mg dose and the group who underwent an intra-day individualized dosing regimen (IDR) that allowed for multiple, escalating doses (6 mg, 12 mg and 18 mg) within a single day, driven by the intensity of the patient-reported psychedelic experience are of interest.
The data gathered include the assessment of the treated patients against several scales including the Montgomery Åsberg Depression Rating Scale (MADRS) and the Brief Psychiatric Rating Scale (BPRS).
This trial was designed in two parts. Part A was an open-label, single-arm, single-dose Phase 1 trial with two dose levels (12 mg (n=4) and 18 mg (n=4)). […] The primary endpoint of Part B was to assess the effects on the severity of depression, as assessed by the proportion of patients in remission on day seven after dosing, defined as a MADRS total score of less than or equal to 10.

COc1ccc2[nH]cc(CCN(C)C)c2c1 [5-MeO-DMT]
Patients with MADRS remission (total score ≤10) (12 mg group n=4, day seven): 50% | Mean MADRS change from baseline (12 mg group, day seven): −21.0 | Mean MADRS change from baseline, percent (12 mg group, day seven): −65% | MADRS Concentration Difficulties % improvement (2 h): 56% and 56.25% | MADRS Concentration Difficulties improvement (2 h): 9 points | MADRS Inability to Feel % improvement (2 h): 44% and 43.75% | MADRS Inability to Feel improvement (2 h): 7 points | MADRS Inner Tension % improvement (2 h): 85% and 84.62% | MADRS Inner Tension improvement (2 h): 11 points | MADRS Lassitude % improvement (2 h): 38% and 37.50% | MADRS Lassitude improvement (2 h): 6 points | MADRS Pessimistic Thoughts % improvement (2 h): 50% | MADRS Pessimistic Thoughts improvement (2 h): 8 points | MADRS Suicidal Thoughts % improvement (2 h): 63% and 62.50% | MADRS Suicidal Thoughts improvement (2 h): 5 points | MADRS Suicidal Thoughts aggregated score (2 h): 3 | MADRS Inner Tension aggregated score (2 h): 2 | MADRS Concentration Difficulties aggregated score (2 h): 7 | MADRS Inability to Feel aggregated score (2 h): 9 | MADRS Lassitude aggregated score (2 h): 10 | MADRS Pessimistic Thoughts aggregated score (2 h): 8 | BPRS Anxiety % improvement (3 h): 56% | BPRS Anxiety improvement (3 h): 14 points | BPRS Blunted Affect % improvement (3 h): 27% and 27.27% | BPRS Blunted Affect improvement (3 h): 3 points | BPRS Emotional Withdrawal % improvement (3 h): 15% and 15.38% | BPRS Emotional Withdrawal improvement (3 h): 2 points | BPRS Guilt Feelings % improvement (3 h): 50% | BPRS Guilt Feelings improvement (3 h): 9 points | BPRS Tension % improvement (3 h): 36% and 35.71% | BPRS Tension improvement (3 h): 5 points | BPRS Blunted Affect aggregated score (3 h): 8 | BPRS Emotional Withdrawal aggregated score (3 h): 11 | BPRS Tension aggregated score (3 h): 9 | BPRS Guilt Feelings aggregated score (3 h): 9 | BPRS Anxiety aggregated score (3 h): 11 | BPRS Anxiety % improvement (day 1): 76% | BPRS Anxiety improvement (day 1): 19 points | BPRS Blunted Affect % improvement (day 1): 45% and 45.45% | BPRS Blunted Affect improvement (day 1): 5 points | BPRS Emotional Withdrawal % improvement (day 1): 38% and 38.46% | BPRS Emotional Withdrawal improvement (day 1): 5 points | BPRS Guilt Feelings % improvement (day 1): 72% and 72.22% | BPRS Guilt Feelings improvement (day 1): 13 points | BPRS Tension % improvement (day 1): 57% and 57.14% | BPRS Tension improvement (day 1): 8 points | MADRS Concentration Difficulties % improvement (day 1): 88% and 87.50% | MADRS Concentration Difficulties improvement (day 1): 14 points | MADRS Inability to Feel % improvement (day 1): 94% and 93.75% | MADRS Inability to Feel improvement (day 1): 15 points | MADRS Inner Tension % improvement (day 1): 77% and 76.92% | MADRS Inner Tension improvement (day 1): 10 points | MADRS Lassitude % improvement (day 1): 100% | MADRS Lassitude improvement (day 1): 16 points | MADRS Pessimistic Thoughts % improvement (day 1): 56% and 56.25% | MADRS Pessimistic Thoughts improvement (day 1): 9 points | MADRS Reduced Sleep % improvement (day 1): 17% and 16.67% | MADRS Reduced Sleep improvement (day 1): 2 points | MADRS Suicidal Thoughts % improvement (day 1): 38% and 37.50% | MADRS Suicidal Thoughts improvement (day 1): 3 points | MADRS Suicidal Thoughts aggregated score (day 1): 5 | BPRS Blunted Affect aggregated score (day 1): 6 | MADRS Reduced Sleep aggregated score (day 1): 10 | BPRS Emotional Withdrawal aggregated score (day 1): 8 | MADRS Inner Tension aggregated score (day 1): 3 | BPRS Tension aggregated score (day 1): 6 | MADRS Concentration Difficulties aggregated score (day 1): 2 | MADRS Inability to Feel aggregated score (day 1): 1 | MADRS Lassitude aggregated score (day 1): 0 | MADRS Pessimistic Thoughts aggregated score (day 1): 7 | BPRS Guilt Feelings aggregated score (day 1): 5 | BPRS Anxiety aggregated score (day 1): 6 | BPRS Anxiety % improvement (day 7): 76% | BPRS Anxiety improvement (day 7): 19 points | BPRS Blunted Affect % improvement (day 7): 55% and 54.55% | BPRS Blunted Affect improvement (day 7): 6 points | BPRS Emotional Withdrawal % improvement (day 7): 54% and 53.85% | BPRS Emotional Withdrawal improvement (day 7): 7 points | BPRS Guilt Feelings % improvement (day 7): 72% and 72.22% | BPRS Guilt Feelings improvement (day 7): 13 points | BPRS Tension % improvement (day 7): 57% and 57.14% | BPRS Tension improvement (day 7): 8 points | MADRS Concentration Difficulties % improvement (day 7): 81% and 81.25% | MADRS Concentration Difficulties improvement (day 7): 13 points | MADRS Inability to Feel % improvement (day 7): 94% and 93.75% | MADRS Inability to Feel improvement (day 7): 15 points | MADRS Inner Tension % improvement (day 7): 62% and 61.54% | MADRS Inner Tension improvement (day 7): 8 points | MADRS Lassitude % improvement (day 7): 81% and 81.25% | MADRS Lassitude improvement (day 7): 13 points | MADRS Pessimistic Thoughts % improvement (day 7): 50% | MADRS Pessimistic Thoughts improvement (day 7): 8 points | MADRS Reduced Sleep % improvement (day 7): 50% | MADRS Reduced Sleep improvement (day 7): 6 points | MADRS Suicidal Thoughts % improvement (day 7): 13% and 12.50% | MADRS Suicidal Thoughts improvement (day 7): 1 points | MADRS Suicidal Thoughts aggregated score (day 7): 7 | BPRS Blunted Affect aggregated score (day 7): 5 | MADRS Reduced Sleep aggregated score (day 7): 6 | BPRS Emotional Withdrawal aggregated score (day 7): 6 | MADRS Inner Tension aggregated score (day 7): 5 | BPRS Tension aggregated score (day 7): 6 | MADRS Concentration Difficulties aggregated score (day 7): 3 | MADRS Inability to Feel aggregated score (day 7): 1 | MADRS Lassitude aggregated score (day 7): 3 | MADRS Pessimistic Thoughts aggregated score (day 7): 8 | BPRS Guilt Feelings aggregated score (day 7): 5 | BPRS Anxiety aggregated score (day 7): 6 | Further patients with MADRS clinical response (18 mg group n=4, day seven): 25% | Patients with MADRS remission (total score ≤10) (18 mg group n=4, day seven): 25% | Mean MADRS change from baseline (18 mg group, day seven): −12.8 | Mean MADRS change from baseline, percent (18 mg group, day seven): −41% | Patients with MADRS remission (total score ≤10) (IDR (Part B) n=8, day seven, p<0.0001): 87.5%
